Here are results for 1 compound from US8268767B2, “Personal wash cleanser comprising defined alkanoyl compounds, defined fatty acyl isethionate surfactant product and skin or hair benefit agent” (priority 2010, dated 2012).

For the series, the system named is skin (patch test sites on the intrascapular area of the back). Description: Patch Test, 14-day cumulative irritation test. The following applies: for Patch test Total irritation score: cleansers diluted to 25% w/w, 14-day cumulative score. The method, then: This was randomized, double-blind study. A sufficient number of subjects were recruited to ensure that 25 subjects completed the study. The 14-day cumulative irritation test was conducted as follows. Patching occurred for 14 consecutive days, except on Sundays. Patches applied on Saturday were left in place until Monday, when freshly prepared patches were applied. The designated patch test sites were approximately 2 cm×2 cm on the intrascapular area of the back. Approximately 0.2 mL of the test product was placed onto a Parke-Davis Readi-Bandage® occlusive patch that measured 2 cm×2 cm. Solutions were made by diluting the cleansers to 25% w/w in distilled water. The patch was then applied to the designated test site. The patches were secured with hypoallergenic tape (Scanpor {Allerderm} as needed). A 0.5% sodium dodecyl sulfate (SDS) solution was used as the control in the test.
Each day following application, the patches were removed, the sites evaluated and identical patches reapplied to the same test sites. All evaluations were made using the following 6-point scoring system: • 0=No evidence of any effect • +=Barely perceptible (minimal, faint, uniform or spotty erythema) numerically equivalent to 0.5 • 1=Mild (pink, uniform erythema covering most of the contact site) • 2=Moderate (pink-red, erythema uniform in the entire contact site) • 3=Marked (bright red erythema with/without petechiae or papules) • 4=Severe (deep red erythema with/without vesiculation or weeping)
If a dermal reaction of 3 or 4 occur with any of the test articles at any point during the study, further patch testing on that subject was terminated at the test site involved, and the attained score was assigned to that site for the subsequent scheduled test days.
Cumulative irritation scores, which were the sum of the numerical irritation grades assigned daily during the 14-day test period, were calculated at the end of the study to compare mildness of the test products. […] The data were statistically analyzed using Tukey-Kramer Comparison, and statistical significance was determined at the 95% confidence level.

Setting [1] is: first patch test of Table 1 (0.5% SDS control = 783).
[2] abbreviates: second patch test of Table 1 (0.5% SDS control = 912).

Consider `CCCCCCCCCCCCOS(=O)(=O)[O-].[Na+]` [0.5% SDS Solution, sodium dodecyl sulfate], for which the “Total irritation score compared to 0.5% SDS solution” value is 100% under setting [1] and 100% under setting [2]. The “Patch test Total irritation score” value under setting [1] turned out to be 783 and the “Patch test Total irritation score” value under setting [2] came to 912.
